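Following 48 hours of exposure in 96-well plates, responses at five concentrations were used to interpolate endpoints linearly. GI50 = concentration required for 50% inhibition of growth. TGI: concentration producing complete growth inhibition.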
Experiments:
Test in all cases: inhibition of tumour cell growth, NCI panel, 48 h
K-562 leukemia = tested on: K-562 leukemia
HOP-92 NSCLC = tested on: HOP-92 NSCLC
SW-620 colon = tested on: SW-620 colon
OVCAR-5 ovarian = tested on: OVCAR-5 ovarian
RPMI-8226 leukemia = tested on: RPMI-8226 leukemia
TK-10 renal = tested on: TK-10 renal
MDA-MB-435 = tested on: MDA-MB-435
SN12C renal = tested on: SN12C renal
UACC-257 melanoma = tested on: UACC-257 melanoma
SK-MEL-28 melanoma = tested on: SK-MEL-28 melanoma
NCI/ADR-RES ovarian = tested on: NCI/ADR-RES ovarian
NCI-H23 lung = tested on: NCI-H23 lung
RXF 393 renal = tested on: RXF 393 renal
EKVX NSCLC = tested on: EKVX NSCLC
MALME-3M melanoma = tested on: MALME-3M melanoma
OVCAR-8 ovarian = tested on: OVCAR-8 ovarian
PC-3 prostate = tested on: PC-3 prostate
IGROV1 ovarian = tested on: IGROV1 ovarian
ACHN renal = tested on: ACHN renal
COLO 205 colon = tested on: COLO 205 colon
SK-MEL-2 melanoma = tested on: SK-MEL-2 melanoma
HOP-62 NSCLC = tested on: HOP-62 NSCLC
CAKI-1 renal = tested on: CAKI-1 renal
SK-OV-3 ovarian = tested on: SK-OV-3 ovarian
SF-539 CNS = tested on: SF-539 CNS
UACC-62 melanoma = tested on: UACC-62 melanoma
A549 NSCLC = tested on: A549 NSCLC
786-0 renal = tested on: 786-0 renal
HL-60(TB) leukemia = tested on: HL-60(TB) leukemia

SMILES: Nc1ccccc1/C=N\Nc1ccccc1
- GI50 (K-562 leukemia): 3.24 µM
- TGI (K-562 leukemia): > 100 µM
- GI50 (HOP-92 NSCLC): 6.27 µM
- TGI (HOP-92 NSCLC): > 100 µM
- GI50 (SW-620 colon): 11.5 µM
- TGI (SW-620 colon): > 100 µM
- GI50 (OVCAR-5 ovarian): > 100 µM
- TGI (OVCAR-5 ovarian): > 100 µM
- GI50 (RPMI-8226 leukemia): > 100 µM
- TGI (RPMI-8226 leukemia): > 100 µM
- GI50 (TK-10 renal): > 100 µM
- TGI (TK-10 renal): > 100 µM
- GI50 (MDA-MB-435): 4.5 µM
- TGI (MDA-MB-435): > 100 µM
- GI50 (SN12C renal): > 100 µM
- TGI (SN12C renal): > 100 µM
- GI50 (UACC-257 melanoma): 51.5 µM
- TGI (UACC-257 melanoma): > 100 µM
- GI50 (SK-MEL-28 melanoma): > 100 µM
- TGI (SK-MEL-28 melanoma): > 100 µM
- GI50 (NCI/ADR-RES ovarian): 5.8 µM
- TGI (NCI/ADR-RES ovarian): > 100 µM
- GI50 (NCI-H23 lung): > 100 µM
- TGI (NCI-H23 lung): > 100 µM
- GI50 (RXF 393 renal): > 100 µM
- TGI (RXF 393 renal): > 100 µM
- GI50 (EKVX NSCLC): 77.1 µM
- TGI (EKVX NSCLC): > 100 µM
- GI50 (MALME-3M melanoma): > 100 µM
- TGI (MALME-3M melanoma): > 100 µM
- GI50 (OVCAR-8 ovarian): > 100 µM
- TGI (OVCAR-8 ovarian): > 100 µM
- GI50 (PC-3 prostate): 3.08 µM
- TGI (PC-3 prostate): > 100 µM
- GI50 (IGROV1 ovarian): > 100 µM
- TGI (IGROV1 ovarian): > 100 µM
- GI50 (ACHN renal): 3.01 µM
- TGI (ACHN renal): > 100 µM
- GI50 (COLO 205 colon): 25.2 µM
- TGI (COLO 205 colon): > 100 µM
- GI50 (SK-MEL-2 melanoma): 65.4 µM
- TGI (SK-MEL-2 melanoma): > 100 µM
- GI50 (HOP-62 NSCLC): > 100 µM
- TGI (HOP-62 NSCLC): > 100 µM
- GI50 (CAKI-1 renal): 1.02 µM
- TGI (CAKI-1 renal): > 100 µM
- GI50 (SK-OV-3 ovarian): > 100 µM
- TGI (SK-OV-3 ovarian): > 100 µM
- GI50 (SF-539 CNS): 1.27 µM
- TGI (SF-539 CNS): 7.04 µM
- GI50 (UACC-62 melanoma): 0.353 µM
- TGI (UACC-62 melanoma): > 100 µM
- GI50 (A549 NSCLC): 4.7 µM
- TGI (A549 NSCLC): > 100 µM
- GI50 (786-0 renal): 2.69 µM
- TGI (786-0 renal): > 100 µM
- GI50 (HL-60(TB) leukemia): 1.78 µM
- TGI (HL-60(TB) leukemia): 29.3 µM
